Common to all, as to type: in vivo, mouse
Data set [1] concerns wild type or Sgca-null mice. Put plainly: Treadmill exercise of wild type or Sgca-null mice after Nicorandil. The following applies: after administration of Nicorandil. The procedure: (§1) Treadmill exercise. […] Animals were exercised at 12-17 m/min for about 10 min and for 25-30 m/min for the remaining 50 min. If an animal became exhausted, the shock bar of this lane was turned off and the animal was allowed to rest at the back of the treadmill for a short period of time. Wild type (n=20), Sgca- (n=20) and Sgcd-null mice (n=42) were divided in approximately equal numbers of male and females. All mice were injected with Evans blue dye (0.5 mg EBD/0.05 ml PBS) intraperitoneally 8 hr before the exercise. Animals were injected with 50 μl of this solution per 10-g body weight. All surviving animals were kept alive for 36-48 hr and serial sections of cardiac muscle were studied for Evans blue uptake and for histopathological signs of necrosis by using routine H&E technique. The effect of Nicorandil treatment on treadmill performance in wild type (n=6), Sgca- (n=6) and Sgcd-null mice (n=20) was studied after 3 days of intraperitoneal injection of Nicorandil at a dose of 1 mg/kg body weight twice a day. Quantification of Evans blue positive stained areas in sections of cardiac muscle from Sgca- and Sgcd-null mice (n=20, each group) was done by using the Scion image program. The percentage of positive stained areas was calculated by dividing the area of staining by the total area of the analyzed heart section.

Data set [2] relates to Sgcd-null mice. The experiment in a line: Treadmill exercise of Sgcd-null mice with Evans blue dye uptake and H&E histopathology of cardiac muscle. The procedure: Treadmill exercise is one of the primary methods used clinically to induce cardiovascular stress in human and animals (Fewell et al., Am. J. Physiol. 273: H1595-H1605 (1997)) and is used to detect cardiovascular abnormalities (e.g. coronary artery dysfunction) that may not be readily apparent at rest. […] All mice were injected with Evans blue dye (EBD) 8 hr before the exercise. EBD is a small molecular mass tracer that tightly complexes with serum albumin. Normally, this is a membrane impermeable molecule, but if the sarcolemma integrity is compromised this dye readily penetrates into the cytoplasm of muscle fibers (Matsuda et al., J. Biochem. (Tokyo) 118: 959-964 (1995); Straub et al., J. Cell Biol. 139: 375-385 (1997)). EBD uptake as well as routine histopathology was examined in the cardiac muscle.
as §1, with “All surviving animals were kept alive for 36-48 hr and serial sections of cardiac muscle were studied for Evans blue uptake and for histopathological signs of necrosis by using routine H&E technique.” left out

Data set [3] concerns Sgcd-null mice. Put plainly: Systemic blood pressure after Nicorandil. The following applies: at the dose given.
In data set [4] the test system is Sgcd-null mice. The experiment in a line: Microfil perfusion of coronary arteries. An excerpt:
The Microfil® perfusion technique was used in vivo in order to determine whether disruption of the SG-SSPN complex in smooth muscle of coronary arteries indeed leads to vascular perfusion abnormalities. Wild type, Sgca-null and Sgcd-null mice at the age of 2-6 months were perfused, and cleared sections of the heart were visualized using trans-illumination with low-power magnification. The coronary microvessels were distributed normally and were smoothly tapered in both wild type and Sgca-null mice. […] Pre- and poststenotic dilation as an appearance of microaneurysm was frequently associated with these constrictions. Extensive areas of focal vascular lumen narrowing and a generalized sparseness of perfusion were observed. […] Quantification of vascular abnormalities in Sgcd-null mice at different ages were determined by calculating the mean numbers of abnormal vessels ±SEM in 10 nonadjacent microscopic fields at a magnification of 10×. No lesions were detected in Sgca-null and wild type mice.
Microfil® perfusion. In order to study coronary microvascular perfusion mice were anesthetized with Phenobarbital 75 mg/kg body weight and a bilateral sternum incision was performed to expose the left atrium. 1-1.5 ml of Microfil®, a liquid silicon rubber (Flow tech, Carver, Mass.) was perfused into the left atrium. The heart continued beating for about 1 min and after contraction stopped the heart was rapidly excised and cured on ice for about 10 min. […] Microvascular perfusion was visualized with both epi- and tans-illumination and examined under low power magnification (×10-20). the vascular irregularities in Sgcd-null mice at different ages (2, 4, and 6 months) were quantified by counting the number of abnormal individual vessel segments in 10 nonadjacent microscopic field using a low magnification (10×) and the mean number of abnormal vessels were calculated for each mouse. An average number of abnormal vessels ±SEM were then calculated for each age group. Vessels segments with more than one abnormality were only counted once.

Where [5] appears, read: Sgcd-null mice after administration of Nicorandil.

“Also recorded” adds a separate entry of the source.

`O=C(NCCO[N+](=O)[O-])c1cccnc1` [Nicorandil]: the “general behavior during exercise and cardiac muscle abnormalities” value in data set [1] is recorded as “No alteration of the general behavior during exercise or any cardiac muscle abnormalities was observed”. In data set [2] (2 months old exercised Sgcd-null mice, intraperitoneal Nicorandil for 3 days prior to the exercise), the “EBD uptake in cardiac muscle” value is “No EBD uptake was observed”. In data set [2] (Sgcd-null mice (n=20), treadmill exercise, Nicorandil intraperitoneal 1 mg/kg body weight twice a day for 3 days prior to exercise), the “development of multiple myocardial ischemic lesions” value was “prevented mortality and the development of multiple myocardial lesions; also recorded: prevent the development of multiple myocardial ischemic lesions in all Sgcd-null mice”. The “mortality in treadmill stressed mice” value in data set [2] (Sgcd-null mice, Nicorandil given prior to the application of physical stress) was “prevented mortality”. Besides, the systemic blood pressure entry in data set [3] is “did not lower the systemic blood pressure”. The “constrictions and focal luminal narrowing of the coronary microvascular bed (perfusion studies)” value in data set [4] (Nicorandil treated Sgcd-null mice) was “free of constrictions and focal luminal narrowing”. Also, in data set [4] (setting [5]), the “density of the vasculature (Microfil perfusion)” value is listed as “overall greater density of the vasculature” and the “vascular constrictions of coronary arteries (Microfil perfusion)” value is “no evidence of vascular constrictions”.

The values are drawn from patent publication US20010016952A1, “Pathogenesis of cardiomyopathy” (priority 1999, published 2001).
